The values that follow come from patent US20250353835A1, “N-TETRAZOLYL ARYL UREA-BASED DERIVATIVES, PREPARATION METHOD THEREFOR, AND USE THEREOF” (Hangzhou Yirui Pharmaceutical Technology Co., Ltd, priority 2022, published 2025).

The target of this assay is T1, human B1R (Homo sapiens, UniProt P46663).
T1 construct: host or cells: HEK293
T1 sequence (P46663 1-353): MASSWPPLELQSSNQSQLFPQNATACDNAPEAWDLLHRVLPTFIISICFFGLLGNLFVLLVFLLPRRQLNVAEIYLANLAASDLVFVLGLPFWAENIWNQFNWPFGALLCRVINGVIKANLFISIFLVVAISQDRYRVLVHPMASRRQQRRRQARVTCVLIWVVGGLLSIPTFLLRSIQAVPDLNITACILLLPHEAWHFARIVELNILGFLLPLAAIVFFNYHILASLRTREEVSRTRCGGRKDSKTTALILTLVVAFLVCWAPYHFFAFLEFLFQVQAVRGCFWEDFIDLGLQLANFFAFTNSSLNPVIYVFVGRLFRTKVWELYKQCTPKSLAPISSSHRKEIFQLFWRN
Description: FLIPR calcium ion flux assay, inhibitory activity against human B1R. The assay is classed as cell-based. The following applies: HEK293 cells stably expressing human B1R; agonist [Lys-des-Arg9]-Bradykinin 4.6 nM (EC80); FLIPR method. How it is done: The inhibitory activity of the compounds against human B1R and B2R channels was determined by calcium ion flux assay using fluorometric imaging plate reader (FLIPR method). See literatures of Lee, Chen et al. for the method. [Lee et al. 2008][Chen et al. 2011]
1. Cell culture: HEK293 recombinant cell lines (WuXi AppTec, Shanghai, China) stably expressing human B1R and B2R were cultured in DMEM (Invitrogen, Cat #11965) medium containing 10% calf serum (Excellbio, Cat #FSP500), 5 μg/ml Geneticin (Invitrogen, Cat #10131) and Penicillin/Streptomycin (Invitrogen, Cat #15140). The incubator conditions were 37° C. and ambient humidity containing 5% CO2.
2. Preparation of the cell assay plate: B1R and B2R cells were seeded in a 384-well assay plate (Greiner, Cat #781090) at a density of 20,000 cells per well (20 μl/well), and cultured overnight at 37° C. in an incubator with 5% CO2. The next day, Fluo-4 Direct™ Loading Buffer (containing 5 mM Probenicid) containing 2× (8 μM) Fluo-4 Direct (Invitrogen, Cat #F10471) was added to each of the wells. The cells were cultured at 37° C. for 50 min, and then culture for at the room temperature 10 min.
3. Preparation of the compound assay plate: The compound was dissolved in 100% DMSO to make a 30 mM stock solution and stored at −20° C. On the day of use, the stock solution of the compound was thawed at the room temperature. Each of the compounds was serially diluted at 1:5 in DMSO culture medium with a starting concentration of 30 μM for 9 concentration points on a 384-well plate. Each of compounds was diluted in duplicate for testing. [Des-Arg10]-HOE140 was used as a positive control compound, and diluted in the same manner with a starting concentration of 3 μM.
4. FLIPR assay: The cell assay plate was placed in a FLIPR instrument ([…]). The compounds in the compound assay plate were added to the corresponding wells on the cell assay plate (10 μL/well) using an automatic program. The calcium ion fluorescence signal was recorded to determine whether the compound may have agonist activity. After 10 minutes, a B1R agonist [Lys-des-Arg9]-Bradykinin2 (10 μL/well) with a final concentration of 4.6 nM (EC80) was added to each of the wells to stimulate the generation of intracellular calcium ion flux signals. The Ca^++-dependent fluorescence signal was continuously monitored at a wavelength of 538 nm to analyze the inhibitory activity of the compound.
5. Data analysis: The data was collected and analyzed by a FLIPR program. The inhibitory (or agonist) activity of the compound at each concentration was evaluated by the fluorescence peak. The IC50 values of the compounds were calculated using EXCEL and PRISM programs.
With `COc1ccc(-c2ccc(NC(=O)N3CCC(C(C)(C)C)CC3)cc2-c2nn[nH]n2)cc1OC` [Compound 1, 4-(tert-butyl)-N-(3′,4′-dimethoxy-2-(2H-tetrazol-5-yl)-[1,1′-biphenyl]-4-yl)piperidine-1-carboxamide], the IC50 came to 0.04 µM. For the compound `COc1ccc(-c2ccc(NC(=O)N3CCC4(CCCO4)CC3)cc2-c2nn[nH]n2)cc1OC` [Compound 3, N-(3′,4′-dimethoxy-2-(2H-tetrazol-5-yl)-[1,1′-biphenyl]-4-yl)-1-oxy-8-azaspiro[4.5]decane-1-carboxamide], the IC50 was found to be 1.33 µM. `COc1ccc(-c2ccc(NC(=O)N3CCC4CCOC4C3)cc2-c2nn[nH]n2)cc1OC` (stereo not drawn) [Compound 4, N-(3′,4′-dimethoxy-2-(2H-tetrazol-5-yl)-[1,1′-biphenyl]-4-yl)hexahydrofuro[2,3-c]pyridine-6(2H)-carboxamide]: the 50% inhibitory concentration (IC50) worked out at 5.32 µM. As to `CCOc1ccc(-c2ccc(NC(=O)N3CCC(C)CC3)cc2-c2nn[nH]n2)cn1` [Compound 5, N-(4-(6-ethoxypyrid-3-yl)-3-(2H-tetrazol-5-yl)phenyl)-4-methylpiperidine-1-carboxamide], the IC50 came out at 0.162 µM. Turning to `CCOc1ccc(-c2ccc(NC(=O)N3CCC(C(C)(C)C)CC3)cc2-c2nn[nH]n2)cn1` [Compound 6, 4-(tert-butyl)-N-(4-(6-ethoxypyrid-3-yl)-3-(2H-tetrazol-5-yl)phenyl)piperidine-1-carboxamide], the half-maximal inhibitory concentration (IC50) amounted to 0.0236 µM. The same measure for `CCOc1ccc(-c2ncc(NC(=O)N3CCC(C(C)(C)C)CC3)cc2-c2nn[nH]n2)cn1` [Compound 7, 4-(tert-butyl)-N-(6′-ethoxy-3-(2H-tetrazol-5-yl)-[2,3′-bipyridyl]-5-yl)piperidine-1-carboxamide]: 0.0578 µM; for `CC(C)(C)C1CCN(C(=O)Nc2ccc(-c3cnn(C4CCC4)c3)c(-c3nn[nH]n3)c2)CC1` [Compound 9, 4-(tert-butyl)-N-(4-(1-cyclobutyl-1H-pyrazol-4-yl)-3-(2H-tetrazol-5-yl)phenyl) piperidine-1-carboxamide]: 0.0459 µM. In the case of `Cn1ncc2cc(-c3ccc(NC(=O)N4CCC(C(C)(C)C)CC4)cc3-c3nn[nH]n3)ccc21` [Compound 10, 4-(tert-butyl)-N-(4-(1-methyl-1H-indazol-5-yl)-3-(2H-tetrazol-5-yl)phenyl)piperidine-1-carboxamide], the IC50 came to 0.0183 µM. On to `COc1ccc(-c2ccc(NC(=O)N3CCC(C)(C)CC3)cc2-c2nn[nH]n2)cc1OC` [Compound 12, N-(3′,4′-dimethoxy-2-(2H-tetrazol-5-yl)-[1,1′-biphenyl]-4-yl)-4,4-dimethylpiperidine-1-carboxamide], for which the IC50 turned out to be 0.148 µM. The same measure for `COc1ccc(-c2ccc(NC(=O)N3CCC(C(C)(C)C)CC3)cc2-c2nn[nH]n2)cc1C` [Compound 13, 4-(tert-butyl)-N-(4′-methoxy-3′-methyl-2-(2H-tetrazol-5-yl)-[1,1′-biphenyl]-4-yl)piperidine-1-carboxamide]: 0.0262 µM. To `COc1ccc(-c2ccc(NC(=O)N3CCC(C(C)(C)C)CC3)cc2-c2nn[nH]n2)cc1Cl` [Compound 14, 4-(tert-butyl)-N-(3′-chloro-4′-methoxy-2-(2H-tetrazol-5-yl)-[1,1′-biphenyl]-4-yl)piperidine-1-carboxamide] belongs 0.0235 µM; to `CC(C)(C)C1CCN(C(=O)Nc2ccc(C(=O)OC3CCCCC3)c(-c3nn[nH]n3)c2)CC1` [Compound 15, cyclohexyl 4-(4-(tert-butyl)piperidine-1-formamido)-2-(2H-tetrazol-5-yl)benzoate], 0.0398 µM. As for `CCOC(=O)c1ccc(NC(=O)N2CCC(C(C)(C)C)CC2)cc1-c1nn[nH]n1` [Compound 16, ethyl 4-(4-(tert-butyl)piperidine-1-formamido)-2-(2H-tetrazol-5-yl)benzoate], the IC50 was found to be 0.0282 µM. To `CC(C)(C)C1CCN(C(=O)Nc2cc(F)c(C(=O)OC3CCCCC3)c(-c3nn[nH]n3)c2)CC1` [Compound 17, cyclohexyl 4-(4-(tert-butyl)piperidine-1-formamido)-2-fluoro-6-(2H-tetrazol-5-yl)benzoate] belongs 0.0296 µM; to `CC(C)(C)C1CCN(C(=O)Nc2cc(F)c(-c3ccc(C(F)(F)F)nc3)c(-c3nn[nH]n3)c2)CC1` [Compound 18, 4-(tert-butyl)-N-(3-fluoro-5-(2H-tetrazol-5-yl)-4-(6-(trifluoromethyl)pyrid-3-yl)phenyl)piperidine-1-carboxamide], 0.0099 µM; to `COc1ccc(-c2ccc(NS(=O)(=O)N3CCC(C)CC3)cc2-c2nn[nH]n2)cc1OC` [Compound 19, N-(3′,4′-dimethoxy-2-(2H-tetrazol-5-yl)-[1,1′-biphenyl]-4-yl)-4-methylpiperidine-1-sulfamide], 1.14 µM. The same measure for `COc1ccc(-c2c(F)cc(NC(=O)N3CCC(C)CC3)cc2-c2nn[nH]n2)cc1OC` [Compound 20, N-(2-fluoro-3′,4′-dimethoxy-6-(2H-tetrazol-5-yl)-[1,1′-biphenyl]-4-yl)-4-methyl piperidine-1-carboxamide]: 0.0323 µM. The same measure for `CC1CCN(C(=O)Nc2ccc(-c3ccc4c(cnn4C)c3)c(-c3nn[nH]n3)c2)CC1` [Compound 21, 4-methyl-N-(4-(1-methyl-1H-indazol-5-yl)-3-(2H-tetrazol-5-yl)phenyl)piperidine-1-carboxamide]: 0.0211 µM; for `COc1ccc(-c2ccc(NC(=O)N3CCC(C)CC3)cc2-c2nn[nH]n2)cc1Cl` [Compound 22, N-(3′-chloro-4′-methoxy-2-(2H-tetrazol-5-yl)-[1,1′-biphenyl]-4-yl)-4-methylpiperidine-1-carboxamide]: 0.0302 µM. On to `CC1CCN(C(=O)Nc2cc(F)c(C(=O)OC3CCCCC3)c(-c3nn[nH]n3)c2)CC1` [Compound 23, cyclohexyl 2-fluoro-4-(4-methylpiperidine-1-formamido)-6-(2H-tetrazol-5-yl)benzoate], for which the IC50 is 0.0446 µM. To `CCOC(=O)c1ccc(NC(=O)N2CCC(C)CC2)cc1-c1nn[nH]n1` [Compound 24, ethyl 4-(4-methylpiperidine-1-formamido)-2-(2H-tetrazol-5-yl)benzoate] belongs 0.0357 µM. With `COc1ccc(-c2c(F)cc(NC(=O)N3CCC(C(F)(F)F)CC3)cc2-c2nn[nH]n2)cc1OC` [Compound 26, N-(2-fluoro-3′,4′-dimethoxy-6-(2H-tetrazol-5-yl)-[1,1′-biphenyl]-4-yl)-4-(trifluoromethyl)piperidine-1-carboxamide], the IC50 amounted to 0.0544 µM. The same measure for `Cn1ncc2cc(-c3ccc(NC(=O)N4CCC(C(F)(F)F)CC4)cc3-c3nn[nH]n3)ccc21` [Compound 27, N-(4-(1-methyl-1H-indazol-5-yl)-3-(2H-tetrazol-5-yl)phenyl)-4-(trifluoromethyl)piperidine-1-carboxamide]: 0.0257 µM. To `COc1ccc(-c2ccc(NC(=O)N3CCC(C(F)(F)F)CC3)cc2-c2nn[nH]n2)cc1Cl` [Compound 28, N-(3′-chloro-4′-methoxy-2-(2H-tetrazol-5-yl)-[1,1′-biphenyl]-4-yl)-4-(trifluoromethyl)piperidine-1-carboxamide] belongs 0.0245 µM; to `O=C(OC1CCCCC1)c1c(F)cc(NC(=O)N2CCC(C(F)(F)F)CC2)cc1-c1nn[nH]n1` [Compound 29, cyclohexyl 2-fluoro-6-(2H-tetrazol-5-yl)-4-(4-(trifluoromethyl)piperidine-1-formamido)benzoate], 0.0346 µM; to `CCOC(=O)c1ccc(NC(=O)N2CCC(C(F)(F)F)CC2)cc1-c1nn[nH]n1` [Compound 30], 0.0354 µM. To `CCOc1ccc(-c2c(F)cc(NC(=O)N3CCC(C)CC3)cc2-c2nn[nH]n2)cn1` [Compound 31, N-(4-(6-ethoxypyrid-3-yl)-3-fluoro-5-(2H-tetrazol-5-yl)phenyl)-4-methylpiperidine-1-carboxamide] belongs 0.0192 µM.

By IC50 is commonly meant the midpoint of a concentration-inhibition curve.
